Legend:
Experiment in all cases: KINOMEscan
TNK1 = molecular target: T1, TNK1 (Homo sapiens, UniProt Q13470); format: binding; details: read-out: Percent Control
T1 construct: purchased Eurofins DiscoverX KINOMEscan (scanMAX 468)

VPS34 = molecular target: T2, VPS34 (Homo sapiens, UniProt Q8NEB9); format: binding; details: read-out: Percent Control
T2 construct: purchased Eurofins DiscoverX KINOMEscan (scanMAX 468)

p38-alpha = molecular target: T3, p38-alpha (Homo sapiens, UniProt Q16539); format: binding; details: read-out: Percent Control
T3 construct: purchased Eurofins DiscoverX KINOMEscan (scanMAX 468)

RET(V804M) = molecular target: T4, RET(V804M) (Homo sapiens, UniProt P07949, V804M); format: binding; details: read-out: Percent Control
T4 construct: purchased Eurofins DiscoverX KINOMEscan (scanMAX 468)

CDC2L1 = molecular target: T5, CDC2L1 (Homo sapiens, UniProt P21127); format: binding; details: read-out: Percent Control
T5 construct: purchased Eurofins DiscoverX KINOMEscan (scanMAX 468)

VRK2 = molecular target: T6, VRK2 (Homo sapiens, UniProt Q86Y07); format: binding; details: read-out: Percent Control
T6 construct: purchased Eurofins DiscoverX KINOMEscan (scanMAX 468)

ULK3 = molecular target: T7, ULK3 (Homo sapiens, UniProt Q6PHR2); format: binding; details: read-out: Percent Control
T7 construct: purchased Eurofins DiscoverX KINOMEscan (scanMAX 468)
T7 sequence (Q6PHR2 whole entry): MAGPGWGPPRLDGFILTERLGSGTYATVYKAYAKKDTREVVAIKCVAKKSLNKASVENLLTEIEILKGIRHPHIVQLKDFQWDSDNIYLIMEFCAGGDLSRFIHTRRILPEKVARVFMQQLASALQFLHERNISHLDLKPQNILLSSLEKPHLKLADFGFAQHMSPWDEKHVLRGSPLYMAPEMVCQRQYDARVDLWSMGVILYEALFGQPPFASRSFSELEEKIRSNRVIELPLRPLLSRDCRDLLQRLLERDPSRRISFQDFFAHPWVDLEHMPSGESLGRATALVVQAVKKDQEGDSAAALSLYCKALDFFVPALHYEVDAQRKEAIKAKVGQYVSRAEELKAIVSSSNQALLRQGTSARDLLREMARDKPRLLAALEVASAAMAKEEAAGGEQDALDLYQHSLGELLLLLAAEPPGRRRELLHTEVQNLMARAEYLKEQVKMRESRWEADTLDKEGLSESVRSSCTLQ

FLT3(ITD,F691L) = format: binding, human; details: 1 μM
DRAK2 = molecular target: T8, DRAK2 (Homo sapiens, UniProt O94768); format: binding; details: read-out: Percent Control
T8 construct: purchased Eurofins DiscoverX KINOMEscan (scanMAX 468)
T8 sequence (O94768 whole entry): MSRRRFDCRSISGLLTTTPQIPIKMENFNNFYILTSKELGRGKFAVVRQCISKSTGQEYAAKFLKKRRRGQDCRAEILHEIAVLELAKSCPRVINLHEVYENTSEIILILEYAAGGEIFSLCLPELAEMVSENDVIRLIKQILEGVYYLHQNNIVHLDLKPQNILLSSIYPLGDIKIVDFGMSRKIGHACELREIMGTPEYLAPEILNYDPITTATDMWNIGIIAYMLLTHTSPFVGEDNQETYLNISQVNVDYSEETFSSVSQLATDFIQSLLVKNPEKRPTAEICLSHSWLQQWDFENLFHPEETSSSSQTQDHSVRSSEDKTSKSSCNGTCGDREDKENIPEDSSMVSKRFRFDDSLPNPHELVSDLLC

PIK3CG = molecular target: T9, PIK3CG (Homo sapiens, UniProt P48736); format: binding; details: read-out: Percent Control
T9 construct: purchased Eurofins DiscoverX KINOMEscan (scanMAX 468)
T9 sequence (P48736 whole entry): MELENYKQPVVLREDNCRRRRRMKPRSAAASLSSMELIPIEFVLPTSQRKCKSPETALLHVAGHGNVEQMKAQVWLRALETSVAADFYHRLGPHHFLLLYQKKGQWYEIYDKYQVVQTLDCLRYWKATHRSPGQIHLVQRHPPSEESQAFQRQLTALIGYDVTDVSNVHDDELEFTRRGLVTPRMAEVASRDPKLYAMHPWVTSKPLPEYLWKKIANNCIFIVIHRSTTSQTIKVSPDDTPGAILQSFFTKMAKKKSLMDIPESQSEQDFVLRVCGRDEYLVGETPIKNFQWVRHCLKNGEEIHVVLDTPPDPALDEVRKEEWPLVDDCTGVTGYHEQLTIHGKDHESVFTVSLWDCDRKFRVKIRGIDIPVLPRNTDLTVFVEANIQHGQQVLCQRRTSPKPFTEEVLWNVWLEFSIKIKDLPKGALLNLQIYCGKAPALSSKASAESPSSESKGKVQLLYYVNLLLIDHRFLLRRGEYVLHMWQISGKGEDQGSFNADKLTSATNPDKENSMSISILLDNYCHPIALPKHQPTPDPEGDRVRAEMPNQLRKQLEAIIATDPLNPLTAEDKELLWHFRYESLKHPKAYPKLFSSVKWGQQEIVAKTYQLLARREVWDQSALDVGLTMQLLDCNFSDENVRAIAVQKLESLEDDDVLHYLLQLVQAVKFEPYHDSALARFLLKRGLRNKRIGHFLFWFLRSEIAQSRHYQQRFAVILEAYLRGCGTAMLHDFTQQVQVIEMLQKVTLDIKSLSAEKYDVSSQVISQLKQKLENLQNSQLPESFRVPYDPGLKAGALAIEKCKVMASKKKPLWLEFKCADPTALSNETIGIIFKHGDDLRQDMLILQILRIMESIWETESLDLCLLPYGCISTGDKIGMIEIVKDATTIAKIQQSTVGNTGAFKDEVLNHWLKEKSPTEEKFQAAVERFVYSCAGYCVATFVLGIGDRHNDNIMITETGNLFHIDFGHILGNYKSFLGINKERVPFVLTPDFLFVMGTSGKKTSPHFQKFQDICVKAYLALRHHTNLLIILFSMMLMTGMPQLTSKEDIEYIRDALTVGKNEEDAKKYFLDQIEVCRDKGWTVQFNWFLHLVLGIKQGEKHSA

CAMK2A = molecular target: T10, CAMK2A (Homo sapiens, UniProt Q9UQM7); format: binding; details: read-out: Percent Control
T10 construct: purchased Eurofins DiscoverX KINOMEscan (scanMAX 468)

GRK2 = molecular target: T11, GRK2 (Homo sapiens, UniProt P25098); format: binding; details: read-out: Percent Control
T11 construct: purchased Eurofins DiscoverX KINOMEscan (scanMAX 468)

TYRO3 = molecular target: T12, TYRO3 (Homo sapiens, UniProt Q06418); format: binding; details: read-out: Percent Control
T12 construct: purchased Eurofins DiscoverX KINOMEscan (scanMAX 468)

IRAK3 = molecular target: T13, IRAK3 (Homo sapiens, UniProt Q9Y616); format: binding; details: read-out: Percent Control
T13 construct: purchased Eurofins DiscoverX KINOMEscan (scanMAX 468)

MKNK1 = molecular target: T14, MKNK1 (Homo sapiens, UniProt Q9BUB5); format: binding; details: read-out: Percent Control
T14 construct: purchased Eurofins DiscoverX KINOMEscan (scanMAX 468)

MEK6 = molecular target: T15, MEK6 (Homo sapiens, UniProt P52564); format: binding; details: read-out: Percent Control
T15 construct: purchased Eurofins DiscoverX KINOMEscan (scanMAX 468)

YANK1 = molecular target: T16, YANK1 (Homo sapiens, UniProt Q8WU08); format: binding; details: read-out: Percent Control
T16 construct: purchased Eurofins (KINOMEscan, DiscoverX)

EGFR(G719S) = molecular target: T17, EGFR(G719S) (Homo sapiens, UniProt P00533, G719S); format: binding; details: read-out: Percent Control
T17 construct: purchased Eurofins DiscoverX KINOMEscan (scanMAX 468)
T17 sequence (P00533 25-1210 G719S): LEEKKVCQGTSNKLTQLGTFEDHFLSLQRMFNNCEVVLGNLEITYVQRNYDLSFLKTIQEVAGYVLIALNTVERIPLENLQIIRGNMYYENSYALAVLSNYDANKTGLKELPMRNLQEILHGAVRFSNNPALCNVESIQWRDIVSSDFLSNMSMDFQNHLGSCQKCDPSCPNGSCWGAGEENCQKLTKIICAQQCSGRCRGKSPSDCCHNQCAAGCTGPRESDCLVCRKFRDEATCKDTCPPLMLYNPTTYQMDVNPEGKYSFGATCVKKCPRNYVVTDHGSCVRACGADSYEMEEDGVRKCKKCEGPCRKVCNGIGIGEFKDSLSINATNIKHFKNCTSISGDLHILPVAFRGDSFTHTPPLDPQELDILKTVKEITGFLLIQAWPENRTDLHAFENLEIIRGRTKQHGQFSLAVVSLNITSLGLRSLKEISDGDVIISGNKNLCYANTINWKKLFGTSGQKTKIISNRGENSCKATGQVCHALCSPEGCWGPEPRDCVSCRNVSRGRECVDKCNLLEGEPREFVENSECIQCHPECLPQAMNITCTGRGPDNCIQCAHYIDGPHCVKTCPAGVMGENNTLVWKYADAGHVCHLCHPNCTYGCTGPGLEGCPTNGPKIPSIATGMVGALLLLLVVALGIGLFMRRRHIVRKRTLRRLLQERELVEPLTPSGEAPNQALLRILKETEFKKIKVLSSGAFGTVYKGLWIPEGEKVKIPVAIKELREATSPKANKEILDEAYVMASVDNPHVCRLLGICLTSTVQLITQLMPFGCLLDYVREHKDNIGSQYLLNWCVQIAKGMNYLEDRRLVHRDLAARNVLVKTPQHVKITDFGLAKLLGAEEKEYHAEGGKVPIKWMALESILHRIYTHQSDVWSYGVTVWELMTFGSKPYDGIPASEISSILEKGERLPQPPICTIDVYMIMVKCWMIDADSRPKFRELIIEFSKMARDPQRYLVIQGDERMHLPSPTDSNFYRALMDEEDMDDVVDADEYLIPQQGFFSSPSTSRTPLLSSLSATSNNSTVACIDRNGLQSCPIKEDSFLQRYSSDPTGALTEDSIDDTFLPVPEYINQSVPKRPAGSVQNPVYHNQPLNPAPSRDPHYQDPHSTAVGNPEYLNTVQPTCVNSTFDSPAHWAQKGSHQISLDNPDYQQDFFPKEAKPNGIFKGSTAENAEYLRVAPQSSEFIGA

LOK = molecular target: T18, LOK (Homo sapiens, UniProt O94804); format: binding; details: read-out: Percent Control
T18 construct: purchased Eurofins DiscoverX KINOMEscan (scanMAX 468)
T18 sequence (O94804 whole entry): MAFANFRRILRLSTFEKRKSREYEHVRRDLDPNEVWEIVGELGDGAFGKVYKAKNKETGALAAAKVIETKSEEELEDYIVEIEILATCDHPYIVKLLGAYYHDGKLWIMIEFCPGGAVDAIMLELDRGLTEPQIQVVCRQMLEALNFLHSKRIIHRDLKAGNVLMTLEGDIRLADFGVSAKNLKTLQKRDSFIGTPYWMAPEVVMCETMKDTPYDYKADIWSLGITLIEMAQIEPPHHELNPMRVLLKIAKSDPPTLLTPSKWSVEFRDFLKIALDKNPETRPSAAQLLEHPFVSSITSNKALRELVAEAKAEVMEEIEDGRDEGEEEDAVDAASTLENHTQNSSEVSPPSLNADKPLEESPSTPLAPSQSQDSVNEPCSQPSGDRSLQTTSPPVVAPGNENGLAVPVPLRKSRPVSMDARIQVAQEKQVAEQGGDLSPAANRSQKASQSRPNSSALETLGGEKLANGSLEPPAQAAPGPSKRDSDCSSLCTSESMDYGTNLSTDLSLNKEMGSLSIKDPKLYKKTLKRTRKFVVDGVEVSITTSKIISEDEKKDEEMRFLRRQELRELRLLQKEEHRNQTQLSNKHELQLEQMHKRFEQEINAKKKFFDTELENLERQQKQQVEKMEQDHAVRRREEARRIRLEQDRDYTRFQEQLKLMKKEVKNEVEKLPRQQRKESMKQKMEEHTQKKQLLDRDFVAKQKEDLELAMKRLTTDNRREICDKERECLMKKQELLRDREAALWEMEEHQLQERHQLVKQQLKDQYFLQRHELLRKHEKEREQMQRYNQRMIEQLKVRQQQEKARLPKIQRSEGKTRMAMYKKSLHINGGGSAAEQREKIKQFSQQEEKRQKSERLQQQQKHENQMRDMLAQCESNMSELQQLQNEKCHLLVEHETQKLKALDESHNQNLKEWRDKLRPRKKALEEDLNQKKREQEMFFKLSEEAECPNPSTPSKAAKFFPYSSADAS

MST2 = molecular target: T19, MST2 (Homo sapiens, UniProt Q13188); format: binding; details: read-out: Percent Control
T19 construct: purchased Eurofins DiscoverX KINOMEscan (scanMAX 468)

ROCK1 = molecular target: T20, ROCK1 (Homo sapiens, UniProt Q13464); format: binding; details: read-out: Percent Control
T20 construct: purchased Eurofins DiscoverX KINOMEscan (scanMAX 468)

p38-beta = molecular target: T21, p38-beta (Homo sapiens, UniProt Q15759); format: binding; details: read-out: Percent Control
T21 construct: purchased Eurofins DiscoverX KINOMEscan (scanMAX 468)

SRMS = molecular target: T22, SRMS (Homo sapiens, UniProt Q9H3Y6); format: binding; details: read-out: Percent Control
T22 construct: purchased Eurofins DiscoverX KINOMEscan (scanMAX 468)

GRK3 = molecular target: T23, GRK3 (Homo sapiens, UniProt P35626); format: binding; details: read-out: Percent Control
T23 construct: purchased Eurofins DiscoverX KINOMEscan (scanMAX 468)

SNRK = molecular target: T24, SNRK (Homo sapiens, UniProt Q9NRH2); format: binding; details: read-out: Percent Control
T24 construct: purchased Eurofins DiscoverX KINOMEscan (scanMAX 468)

KIT(L576P) = molecular target: T25, KIT(L576P) (Homo sapiens, UniProt P10721, L576P); format: binding; details: read-out: Percent Control
T25 construct: purchased Eurofins DiscoverX KINOMEscan (scanMAX 468)

KIT = molecular target: T26, KIT (Homo sapiens, UniProt P10721); format: binding; details: read-out: Percent Control
T26 construct: purchased Eurofins DiscoverX KINOMEscan (scanMAX 468)

MUSK = molecular target: T27, MUSK (Homo sapiens, UniProt O15146); format: binding; details: read-out: Percent Control
T27 construct: purchased Eurofins DiscoverX KINOMEscan (scanMAX 468)

DCAMKL2 = molecular target: T28, DCAMKL2 (Homo sapiens, UniProt Q8N568); format: binding; details: read-out: Percent Control
T28 construct: purchased Eurofins DiscoverX KINOMEscan (scanMAX 468)

TIE1 = molecular target: T29, TIE1 (Homo sapiens, UniProt P35590); format: binding; details: read-out: Percent Control
T29 construct: purchased Eurofins DiscoverX KINOMEscan (scanMAX 468)

PHKG1 = molecular target: T30, PHKG1 (Homo sapiens, UniProt Q16816); format: binding; details: read-out: Percent Control
T30 construct: purchased Eurofins DiscoverX KINOMEscan (scanMAX 468)
T30 sequence (Q16816 whole entry): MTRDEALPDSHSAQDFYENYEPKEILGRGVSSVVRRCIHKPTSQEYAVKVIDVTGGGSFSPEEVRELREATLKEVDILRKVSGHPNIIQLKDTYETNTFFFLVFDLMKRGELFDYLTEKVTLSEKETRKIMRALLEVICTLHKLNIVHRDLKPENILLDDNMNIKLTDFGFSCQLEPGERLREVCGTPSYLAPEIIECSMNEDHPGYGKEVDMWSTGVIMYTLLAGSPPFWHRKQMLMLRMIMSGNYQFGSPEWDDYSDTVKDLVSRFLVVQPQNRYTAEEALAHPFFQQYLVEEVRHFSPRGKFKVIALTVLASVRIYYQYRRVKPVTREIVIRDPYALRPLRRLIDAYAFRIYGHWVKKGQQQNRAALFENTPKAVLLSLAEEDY

ACVR1B = molecular target: T31, ACVR1B (Homo sapiens, UniProt P36896); format: binding; details: read-out: Percent Control
T31 construct: purchased Eurofins DiscoverX KINOMEscan (scanMAX 468)
T31 sequence (P36896 24-505): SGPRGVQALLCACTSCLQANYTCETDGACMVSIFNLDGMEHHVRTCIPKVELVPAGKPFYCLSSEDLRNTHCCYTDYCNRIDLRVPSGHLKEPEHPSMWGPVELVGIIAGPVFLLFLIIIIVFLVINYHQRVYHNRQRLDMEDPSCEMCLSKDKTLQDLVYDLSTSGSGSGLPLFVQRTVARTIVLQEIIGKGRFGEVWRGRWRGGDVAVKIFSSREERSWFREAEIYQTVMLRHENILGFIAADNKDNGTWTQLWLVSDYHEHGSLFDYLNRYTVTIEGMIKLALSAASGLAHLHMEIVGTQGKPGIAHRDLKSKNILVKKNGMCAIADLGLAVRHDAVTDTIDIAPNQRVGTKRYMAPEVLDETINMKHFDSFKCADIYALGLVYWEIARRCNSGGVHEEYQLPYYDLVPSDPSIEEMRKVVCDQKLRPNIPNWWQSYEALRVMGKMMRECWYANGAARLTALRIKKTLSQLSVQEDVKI

PIKFYVE = molecular target: T32, PIKFYVE (Homo sapiens, UniProt Q9Y2I7); format: binding; details: read-out: Percent Control
T32 construct: purchased Eurofins DiscoverX KINOMEscan (scanMAX 468)

PIK3CA(Q546K) = molecular target: T33, PIK3CA(Q546K) (Homo sapiens, UniProt P42336, Q546K); format: binding; details: read-out: Percent Control
T33 construct: purchased Eurofins DiscoverX KINOMEscan (scanMAX 468)

EPHA4 = molecular target: T34, EPHA4 (Homo sapiens, UniProt P54764); format: binding; details: read-out: Percent Control
T34 construct: purchased Eurofins DiscoverX KINOMEscan (scanMAX 468)

ALK = molecular target: T35, ALK (Homo sapiens, UniProt Q9UM73); format: binding; details: read-out: Percent Control
T35 construct: purchased Eurofins DiscoverX KINOMEscan (scanMAX 468)

ERN1 = molecular target: T36, ERN1 (Homo sapiens, UniProt O75460); format: binding; details: read-out: Percent Control
T36 construct: purchased Eurofins DiscoverX KINOMEscan (scanMAX 468)

EGFR(T790M) = molecular target: T37, EGFR(T790M) (Homo sapiens, UniProt P00533, T790M); format: binding; details: read-out: Percent Control
T37 construct: purchased Eurofins DiscoverX KINOMEscan (scanMAX 468)

DRAK1 = molecular target: T38, DRAK1 (Homo sapiens, UniProt Q9UEE5); format: binding; details: read-out: Percent Control
T38 construct: purchased Eurofins DiscoverX KINOMEscan (scanMAX 468)

PDGFRA = molecular target: T39, PDGFRA (Homo sapiens, UniProt P16234); format: binding; details: read-out: Percent Control
T39 construct: purchased Eurofins DiscoverX KINOMEscan (scanMAX 468)

FGFR3 = molecular target: T40, FGFR3 (Homo sapiens, UniProt P22607); format: binding; details: read-out: Percent Control
T40 construct: purchased Eurofins DiscoverX KINOMEscan (scanMAX 468)

DMPK = molecular target: T41, DMPK (Homo sapiens, UniProt Q09013); format: binding; details: read-out: Percent Control
T41 construct: purchased Eurofins DiscoverX KINOMEscan (scanMAX 468)

LIMK2 = molecular target: T42, LIMK2 (Homo sapiens, UniProt P53671); format: binding; details: read-out: Percent Control
T42 construct: purchased Eurofins DiscoverX KINOMEscan (scanMAX 468)

PRKD2 = molecular target: T43, PRKD2 (Homo sapiens, UniProt Q9BZL6); format: binding; details: read-out: Percent Control
T43 construct: purchased Eurofins DiscoverX KINOMEscan (scanMAX 468)

Which remaining binding at 1 µM (TNK1) does the source give for `Cc1ccc(-n2cc(COc3cccc4cnc(Nc5cccc(Cl)c5)nc34)nn2)c([N+](=O)[O-])c1` [DB18] here?
The remaining binding at 1 µM was 100%.

And the remaining binding at 1 µM (VPS34)?
The remaining binding at 1 µM was 100%.

And the remaining binding at 1 µM (p38-alpha)?
The remaining binding at 1 µM was 100%.

What about the remaining binding at 1 µM (RET(V804M)) of the same compound?
Its remaining binding at 1 µM is 96%.

And the remaining binding at 1 µM (CDC2L1)?
The remaining binding at 1 µM was 100%.

What about the remaining binding at 1 µM (VRK2) of the same compound?
Its remaining binding at 1 µM is 100%.

And the remaining binding at 1 µM (ULK3)?
Its remaining binding at 1 µM is 100%.

And the “Percent Control” value (FLT3(ITD,F691L))?
Its value is 94 % Ctrl.

What about the remaining binding at 1 µM (DRAK2) of the same compound?
Its remaining binding at 1 µM is 100%.

And the remaining binding at 1 µM (PIK3CG)?
Its remaining binding at 1 µM is 62%.

And the remaining binding at 1 µM (CAMK2A)?
The remaining binding at 1 µM was 96%.

What about the remaining binding at 1 µM (GRK2) of the same compound?
The remaining binding at 1 µM was 94%.

What about the remaining binding at 1 µM (TYRO3) of the same compound?
Its remaining binding at 1 µM is 100%.

What about the remaining binding at 1 µM (IRAK3) of the same compound?
Its remaining binding at 1 µM is 59%.

What about the remaining binding at 1 µM (MKNK1) of the same compound?
The remaining binding at 1 µM was 100%.

What about the remaining binding at 1 µM (MEK6) of the same compound?
The remaining binding at 1 µM was 99%.

What about the remaining binding at 1 µM (YANK1) of the same compound?
Its remaining binding at 1 µM is 100%.

What about the remaining binding at 1 µM (EGFR(G719S)) of the same compound?
The remaining binding at 1 µM was 100%.

What about the remaining binding at 1 µM (LOK) of the same compound?
The remaining binding at 1 µM was 100%.

And the remaining binding at 1 µM (MST2)?
Its remaining binding at 1 µM is 100%.

And the remaining binding at 1 µM (ROCK1)?
The remaining binding at 1 µM was 100%.

And the remaining binding at 1 µM (p38-beta)?
The remaining binding at 1 µM was 100%.

And the remaining binding at 1 µM (SRMS)?
Its remaining binding at 1 µM is 98%.

What about the remaining binding at 1 µM (GRK3) of the same compound?
The remaining binding at 1 µM was 89%.

And the remaining binding at 1 µM (SNRK)?
The remaining binding at 1 µM was 100%.

And the remaining binding at 1 µM (KIT(L576P))?
The remaining binding at 1 µM was 100%.

What about the remaining binding at 1 µM (KIT) of the same compound?
Its remaining binding at 1 µM is 100%.

What about the remaining binding at 1 µM (MUSK) of the same compound?
Its remaining binding at 1 µM is 100%.

What about the remaining binding at 1 µM (DCAMKL2) of the same compound?
Its remaining binding at 1 µM is 100%.

And the remaining binding at 1 µM (TIE1)?
Its remaining binding at 1 µM is 100%.

What about the remaining binding at 1 µM (PHKG1) of the same compound?
The remaining binding at 1 µM was 100%.

What about the remaining binding at 1 µM (ACVR1B) of the same compound?
The remaining binding at 1 µM was 88%.

And the remaining binding at 1 µM (PIKFYVE)?
Its remaining binding at 1 µM is 61%.

And the remaining binding at 1 µM (PIK3CA(Q546K))?
Its remaining binding at 1 µM is 96%.

What about the remaining binding at 1 µM (EPHA4) of the same compound?
Its remaining binding at 1 µM is 88%.

And the remaining binding at 1 µM (ALK)?
The remaining binding at 1 µM was 100%.

What about the remaining binding at 1 µM (ERN1) of the same compound?
The remaining binding at 1 µM was 94%.

And the remaining binding at 1 µM (EGFR(T790M))?
The remaining binding at 1 µM was 100%.

And the remaining binding at 1 µM (DRAK1)?
Its remaining binding at 1 µM is 100%.

What about the remaining binding at 1 µM (PDGFRA) of the same compound?
Its remaining binding at 1 µM is 100%.

What about the remaining binding at 1 µM (FGFR3) of the same compound?
Its remaining binding at 1 µM is 100%.

And the remaining binding at 1 µM (DMPK)?
The remaining binding at 1 µM was 100%.

And the remaining binding at 1 µM (LIMK2)?
Its remaining binding at 1 µM is 100%.

And the remaining binding at 1 µM (PRKD2)?
Its remaining binding at 1 µM is 100%.
